# Assay results taken from US9603364B2 (Dow AgroSciences LLC, priority 2013, dated 2017).
# How the values were obtained:
# Assay in all cases: General post-emergent herbicidal activity, foliar application
# Format in all cases: in vivo
# Oryza sativa L. (rice) = conditions: Oryza sativa, 336 h, scored after 14 days, read-out: % Visual Growth Reduction ORYSA
# Protocol: (§1) A weighed amount, determined by the highest rate to be tested, of each test compound was placed in a 25 mL glass vial and was dissolved in 4 mL of a 97:3 v/v (volume/volume) mixture of acetone and dimethyl sulfoxide to obtain concentrated stock solutions which will be referred to as General Purpose Solvent. […] The concentrated stock solutions obtained were diluted with 20 mL of an aqueous mixture containing water, General Purpose Solvent, isopropyl alcohol, Atplus 411F crop oil concentrate, and Triton X-155 surfactant in a 46:42:12:1.0:0.02 v/v ratio to obtain spray solutions containing the highest application rates. Additional application rates were obtained by serial dilution of 12 mL of the high rate solution into a solution containing 2 mL of 97:3 v/v (volume/volume) mixture of acetone and dimethyl sulfoxide and 10 mL of an aqueous mixture containing water, General Purpose Solvent, isopropyl alcohol, Atplus 411F crop oil concentrate, and Triton X-155 surfactant in a 46:42:12:1.0:0.02 v/v ratio to obtain 1/2×, 1/4×, 1/8× and 1/16× rates of the high rate. […] Control plants were sprayed in the same manner with the solvent blank.
# (§2) The treated plants and control plants were placed in a greenhouse as described above and watered by sub-irrigation to prevent wash-off of the test compounds. After 14 days, the condition of the test plants as compared with that of the untreated plants was determined visually and scored on a scale of 0 to 100 percent where 0 corresponds to no injury and 100 corresponds to complete kill.
# Zea mays L. (corn) = conditions: 336 h, scored after 14 days, read-out: % Visual Growth Reduction ZEAMX
# Protocol: as §1, §2
# [1] = test system: Chenopodium album L. (lambsquarters, common)
# Protocol: as §1, §2
# (§3) By applying the well-accepted probit analysis as described by J. Berkson in […], 48, 565 (1953) and by D. Finney in “Probit Analysis” Cambridge University Press (1952), the dose response data gathered as expressed above can be used to calculate GR20, GR50 and GR80 values, which are defined as growth reduction factors that correspond to the effective dose of herbicide required to kill or control 20 percent, 50 percent or 80 percent, respectively, of a target plant. Data not expressed in Table A may have been used to calculate some of the GR80 values in Table B. In some cases, the GR80 values may be extrapolations calculated based on the slope of the dose response curve for individual compounds listed in Table B.
# [2] = test system: Euphorbia heterophylla L. (poinsettia, wild)
# Protocol: as §1, §2, §3
# [3] = test system: Viola tricolor L. (pansy)
# Protocol: as §1, §2, §3
# [4] = test system: Amaranthus retroflexus L. (pigweed, redroot)
# Protocol: as §1, §2, §3
# [5] = test system: Helianthus annuus L. (sunflower, common)
# Protocol: as §1, §2, §3
# [6] = test system: Echinochloa crus-galli (L.) Beauv. (barnyardgrass)
# Protocol: as §1, §2, §3
# [7] = calculated by probit analysis, dose for 80% visual injury, may be extrapolated
smiles,measurement,setting,value
"COC(=O)c1nc(C(F)F)c(Cl)c(N)c1Cl [Compound F7, Methyl 4-amino-3,5-dichloro-6-(difluoromethyl)picolinate]",plant injury at 70 g/ha,Oryza sativa L. (rice); 70 g ai/ha,0%
same,plant injury at 140 g/ha,Oryza sativa L. (rice); 140 g ai/ha,0%
same,plant injury at 280 g/ha,Oryza sativa L. (rice); 280 g ai/ha,0%
same,plant injury at 70 g/ha,Zea mays L. (corn); 70 g ai/ha,0%
same,plant injury at 140 g/ha,Zea mays L. (corn); 140 g ai/ha,0%
same,plant injury at 280 g/ha,Zea mays L. (corn); 280 g ai/ha,10%
same,pest or weed control at 70 g/ha,"[1]; Chenopodium album, 336 h, 70 g ai/ha, foliar post-emergent, scored after 14 days, read-out: % Visual Growth Reduction CHEAL",0%
same,pest or weed control at 140 g/ha,"[1]; Chenopodium album, 336 h, 140 g ai/ha, foliar post-emergent, scored after 14 days, read-out: % Visual Growth Reduction CHEAL",0%
same,pest or weed control at 280 g/ha,"[1]; Chenopodium album, 336 h, 280 g ai/ha, foliar post-emergent, scored after 14 days, read-out: % Visual Growth Reduction CHEAL",0%
same,GR80 Value CHEAL,[1]; [7],>280 g ai/ha
same,pest or weed control at 70 g/ha,"[2]; Euphorbia heterophylla, 336 h, 70 g ai/ha, foliar post-emergent, scored after 14 days, read-out: % Visual Growth Reduction EPHHL",90%
same,pest or weed control at 140 g/ha,"[2]; Euphorbia heterophylla, 336 h, 140 g ai/ha, foliar post-emergent, scored after 14 days, read-out: % Visual Growth Reduction EPHHL",100%
same,pest or weed control at 280 g/ha,"[2]; Euphorbia heterophylla, 336 h, 280 g ai/ha, foliar post-emergent, scored after 14 days, read-out: % Visual Growth Reduction EPHHL",100%
same,GR80 Value EPHHL,[2]; [7],17.5 g ai/ha
same,pest or weed control at 70 g/ha,"[3]; Viola tricolor, 336 h, 70 g ai/ha, foliar post-emergent, scored after 14 days, read-out: % Visual Growth Reduction VIOTR",0%
same,pest or weed control at 140 g/ha,"[3]; Viola tricolor, 336 h, 140 g ai/ha, foliar post-emergent, scored after 14 days, read-out: % Visual Growth Reduction VIOTR",0%
same,pest or weed control at 280 g/ha,"[3]; Viola tricolor, 336 h, 280 g ai/ha, foliar post-emergent, scored after 14 days, read-out: % Visual Growth Reduction VIOTR",0%
same,GR80 Value VIOTR,[3]; [7],>280 g ai/ha
same,pest or weed control at 70 g/ha,"[4]; Amaranthus retroflexus, 336 h, 70 g ai/ha, foliar post-emergent, scored after 14 days, read-out: % Visual Growth Reduction AMARE",75%
same,pest or weed control at 140 g/ha,"[4]; Amaranthus retroflexus, 336 h, 140 g ai/ha, foliar post-emergent, scored after 14 days, read-out: % Visual Growth Reduction AMARE",90%
same,pest or weed control at 280 g/ha,"[4]; Amaranthus retroflexus, 336 h, 280 g ai/ha, foliar post-emergent, scored after 14 days, read-out: % Visual Growth Reduction AMARE",100%
same,GR80 Value AMARE,[4]; [7],84.2 g ai/ha
same,pest or weed control at 70 g/ha,"[5]; Helianthus annuus, 336 h, 70 g ai/ha, foliar post-emergent, scored after 14 days, read-out: % Visual Growth Reduction HELAN",60%
same,pest or weed control at 140 g/ha,"[5]; Helianthus annuus, 336 h, 140 g ai/ha, foliar post-emergent, scored after 14 days, read-out: % Visual Growth Reduction HELAN",80%
same,pest or weed control at 280 g/ha,"[5]; Helianthus annuus, 336 h, 280 g ai/ha, foliar post-emergent, scored after 14 days, read-out: % Visual Growth Reduction HELAN",90%
same,GR80 Value HELAN,[5]; [7],145 g ai/ha
same,pest or weed control at 70 g/ha,"[6]; Echinochloa crus-galli, 336 h, 70 g ai/ha, foliar post-emergent, scored after 14 days, read-out: % Visual Growth Reduction ECHCG",0%
same,pest or weed control at 140 g/ha,"[6]; Echinochloa crus-galli, 336 h, 140 g ai/ha, foliar post-emergent, scored after 14 days, read-out: % Visual Growth Reduction ECHCG",0%
same,pest or weed control at 280 g/ha,"[6]; Echinochloa crus-galli, 336 h, 280 g ai/ha, foliar post-emergent, scored after 14 days, read-out: % Visual Growth Reduction ECHCG",0%
same,GR80 Value ECHCG,[6]; [7],>280 g ai/ha
